Laboratory results from patent US10202360B2 (CELGENE QUANTICEL RESEARCH, INC., priority 2016, dated 2019).

Assays:
CREBBP = CREBBP (Homo sapiens (Human), UniProt Q92793); test: In vitro enzyme inhibition assay - CREBBP inhibition (AlphaScreen, biotinylated H4-tetraacetyl peptide); assay type: binding
Method in brief: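 Displacement of 20 nM biotinylated tetraacetyl-H4 peptide from 50 nM E. coli-expressed His-CREBBP, measured by AlphaScreen after bead equilibration for 2 h.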

BRD4 = BRD4 (Homo sapiens (Human), UniProt O60885); test: In vitro enzyme inhibition assay - BRD4 inhibition (as described in U.S. Pat. No. 9,034,900); assay type: binding; conditions: Table 29; BRD4 BD1
[1] = Table 28, AlphaScreen, H4-tetraacetyl peptide

Sequence of CREBBP (Q92793 1081-1197): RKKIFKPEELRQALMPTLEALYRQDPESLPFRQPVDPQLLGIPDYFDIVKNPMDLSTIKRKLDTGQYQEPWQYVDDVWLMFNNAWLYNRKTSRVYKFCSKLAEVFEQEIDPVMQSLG

Row | IC50 (CREBBP; [1]) | IC50 (CREBBP; Table 29) | IC50 (BRD4) | Structure (SMILES)
1 | < 500 nM | < 500 nM | 500 to 5000 nM | Cc1cccc(Cl)c1Oc1nc(NS(=O)(=O)C(C)C)cc(-c2cc(C)c(=O)n(C)c2)n1 [Example 3, Propane-2-sulfonic acid [2-(2-chloro-6-methyl-phenoxy)-6-(1,5-dimethyl-6-oxo-1,6-dihydro-pyridin-3-yl)-pyrimidin-4-yl]-amide]
2 | < 500 nM | < 500 nM | > 5000 nM | COc1cccc(C#N)c1Oc1nc(NS(=O)(=O)C(C)C)cc(-c2cc(C)c(=O)n(C)c2)n1 [Example 11, Propane-2-sulfonic acid [2-(2-cyano-6-methoxy-phenoxy)-6-(1,5-dimethyl-6-oxo-1,6-dihydro-pyridin-3-yl)-pyrimidin-4-yl]-amide]
3 | < 500 nM | < 500 nM | 500 to 5000 nM | CCCCS(=O)(=O)Nc1cc(-c2cc(C)c(=O)n(C)c2)nc(Oc2c(C)cccc2Cl)n1 [Example 14, Butane-1-sulfonic acid [2-(2-chloro-6-methyl-phenoxy)-6-(1,5-dimethyl-6-oxo-1,6-dihydro-pyridin-3-yl)-pyrimidin-4-yl]-amide]
4 | < 500 nM | < 500 nM | > 5000 nM | Cc1cc(Cl)cc(Cl)c1Oc1nc(NS(=O)(=O)C(C)C)cc(-c2cc(C)c(=O)n(C)c2)n1 [Example 33, Propane-2-sulfonic acid [2-(2,4-dichloro-6-methyl-phenoxy)-6-(1,5-dimethyl-6-oxo-1,6-dihydro-pyridin-3-yl)-pyrimidin-4-yl]-amide]
5 | < 500 nM | < 500 nM | > 5000 nM | CCCCS(=O)(=O)Nc1cc(-c2cc(C)c(=O)n(C)c2)nc(Oc2c(Cl)cccc2CC)n1 [Example 41, Butane-1-sulfonic acid [2-(2-chloro-6-ethyl-phenoxy)-6-(1,5-dimethyl-6-oxo-1,6-dihydro-pyridin-3-yl)-pyrimidin-4-yl]-amide]
6 | < 500 nM | < 500 nM | 500 to 5000 nM | Cc1cc(-c2cc(NS(=O)(=O)C3CCCC3)nc(Oc3ccc(F)cc3F)n2)cn(C)c1=O [Example 66, N-(2-(2,4-difluorophenoxy)-6-(1,5-dimethyl-6-oxo-1,6-dihydropyridin-3-yl)pyrimidin-4-yl)cyclopentanesulfonamide]
7 | < 500 nM | < 500 nM | > 5000 nM | CCCCS(=O)(=O)Nc1cc(-c2cc(C)c(=O)n(C)c2)nc(Oc2c(C)cccc2C)n1 [Example 72, N-(6-(1,5-dimethyl-6-oxo-1,6-dihydropyridin-3-yl)-2-(2,6-dimethylphenoxy)pyrimidin-4-yl)butane-1-sulfonamide]
8 | < 500 nM | < 500 nM | > 5000 nM | CCCCS(=O)(=O)Nc1cc(-c2cc(Cl)c(=O)n(C)c2)nc(Oc2c(C)cccc2C)n1 [Example 87, N-(6-(5-chloro-1-methyl-6-oxo-1,6-dihydropyridin-3-yl)-2-(2,6-dimethylphenoxy)pyrimidin-4-yl)butane-1-sulfonamide]
9 | < 500 nM | < 500 nM | > 5000 nM | CCCCS(=O)(=O)Nc1cc(-c2ccc(=O)n(C)c2)nc(Oc2c(C)cccc2F)n1 [Example 113, Butane-1-sulfonic acid [2-(2-fluoro-6-methyl-phenoxy)-6-(1-methyl-6-oxo-1,6-dihydro-pyridin-3-yl)-pyrimidin-4-yl]-amide]
10 |  | > 5000 nM | < 500 nM | CCS(=O)(=O)Nc1ncc(Oc2ccc(F)cc2F)c(-c2cc(C)c(=O)n(C)c2)n1 [N-(5-(2,4-difluorophenoxy)-4-(1,5-dimethyl-6-oxo-1,6-dihydropyridin-3-yl)-pyrimidin-2-yl)ethanesulfonamide]
11 |  | > 5000 nM | < 500 nM | Cc1cc(-c2nc(NS(C)(=O)=O)ncc2Oc2ccc(F)cc2F)cn(C)c1=O [N-(5-(2,4-difluorophenoxy)-4-(1,5-dimethyl-6-oxo-1,6-dihydropyridin-3-yl)-pyrimidin-2-yl)methanesulfonamide]
